Measured values reported in patent US20260115173A1 (University of Houston System, priority 2022, published 2026).
“Also recorded” adds a separate entry of the source. Like-named read-outs stand apart in the source and are kept apart here.

Experiments:
male or female rats = conditions: cited from earlier work
mice of both sexes = conditions: cited from earlier work
rats [1] = conditions: rat, in vivo; cited from earlier work
delta opioid receptors [2] = target: T1, delta opioid receptors (Homo sapiens, UniProt P41143); conditions: cited from earlier work
[3] = tested on: female Sprague Dawley rats; experiment: Operant alcohol (10%) self-administration, FR2 schedule, 60-min sessions; format: in vivo, rat; conditions: for Active lever presses, post-hoc comparison with vehicle / Estimated total alcohol intake, post-hoc comparison with vehicle / Number of head entries, comparison with vehicle / Number of reinforcers earned, post-hoc comparison with vehicle: 0.3, 1.0, 3.0 mg/kg IP vs vehicle, decrease, Tukey's test
Text: (§1) Animals. A total of 10 female Sprague Dawley rats (Charles River, Wilmington, MA) were used for the alcohol self-administration studies. […] These same rats were used in the cFos immunohistochemistry study. Rats were initially housed 3-5 to a cage in polypropylene cages housed in circular towers (Animal Care Systems, Inc, Centennial, CO) located within a temperature- and humidity-controlled vivarium that was maintained on a 12:12 light/dark cycle (lights on at 6 AM). Rats weighed about 250-350 gm at the start of the experiment and were at least 100 days old. Food and water were available ad libitum throughout the study. To facilitate alcohol self-administration rats were exposed to alcohol in vapor chambers (La Jolla Alcohol Research, La Jolla, CA) for 6-weeks prior to operant training using a chronic intermittent alcohol exposure (i.e., alcohol vapors were on for 14-h and off for 10-h, 5 days per week).
Drugs. Alcohol (ethyl alcohol, 190 Proof, USP grade, Koptec, King of Prussia, PA) was diluted to 10% (with RO water, w/v) and made available for consumption via standard operant chambers (described below). MG (Cayman Chemical, Ann Arbor, MI) was prepared in 20% Tween 80 (Sigma Aldrich, St. Louis, MO) in 80% sterile saline (0.9% NaCl). […] Each dose of test drug was administered via intraperitoneal (IP) injection.
Operant self-administration training and testing. Training sessions (60 min) began with the illumination of the house light and, initially, two non-contingent dipper presentations (primes) for 10 sec. The dipper access light was illuminated for the entire length of the dipper presentation time. […] When the rat pressed the active lever, the house light would turn off, dipper would protrude, and the access area light and the triple cue light above both of the levers went off. […] Stable response levels under the FR2 schedule (≤20% variability over 2 consecutive days) under 3 second dipper presentation time were required for the animal to move into the testing phase. Test sessions (60 min) were conducted once a rat met stable lever pressing criteria. Each dose of test drug and vehicle was administered (IP) 30 minutes prior to the test session in a randomized order across rats with at least 4-7 days intervening between dose administrations.
Responses obtained from the test sessions included two measures of appetitive responding (numbers of active lever presses and head entries) and two measures of consummatory responding (numbers of reinforcers earned and estimated amount of alcohol consumed in g/kg). Estimates of the amount of alcohol delivered were derived by multiplying the number of reinforcers earned by the amount of alcohol (g) per delivery (0.1 mL) of the 10% solution and divided by body weight.
Statistical Analysis. The self-administration data were analyzed with ANOVAs to compare the two measures of appetitive responding (numbers of active lever presses and head entries) and the two measures of consummatory responding (numbers of reinforcers earned and estimated total alcohol intake in g/kg).
(§2) Significant main effects were followed by Tukey's multiple comparisons test. Comparisons with p-values less than 0.05 were considered significant and those less than 0.10 were considered a trend towards significance.

[4] = 15-30 mg/kg; cited from earlier work
delta opioid receptors [5] = target: T2, delta opioid receptors (Mus musculus, UniProt P32300); conditions: NG108-15 cells; effect blocked by naloxone; cited from earlier work
T2 construct: endogenous in cells; host or cells: NG108-15

delta opioid receptors [6] = target: T1, delta opioid receptors; conditions: cited from earlier work; remark: listed apart in the source
[7] = NTX 1 mg/kg; cited from earlier work
[8] = 15-30 mg/kg; cited from earlier work; remark: listed apart in the source
cFos [9] = experiment: Immunohistochemistry: cFos activation in brain areas; format: in vivo, rat; conditions: 3 mg/kg IP, 90 min after open field test, vs control
Text: as §1

rats [10] = conditions: cited from earlier work
mice = conditions: i.p., cited from earlier work
male Sprague Dawley rats = conditions: cited from earlier work
male rats = conditions: male Sprague Dawley rats, 10-30 mg/kg ip vs 1, 5, 10 mg/kg i.p.; cited from earlier work
[11] = tested on: female Sprague Dawley rats; experiment: Open field test - locomotor activity; format: in vivo, rat; conditions: N=4/group; for Distance traveled over 5-min time blocks: 3 mg/kg IP 30 min before 30-min test, vs control; for Total distance traveled over entire 30-min session: 3 mg/kg IP 30 min before test
Text: as §1
Open Field Test-Locomotor Activity. […] Drugs were administered 30 minutes before rats were placed into the open field chambers and distance traveled (cm) was tabulated in 5-min blocks across the 30-minute test.
Distance traveled over time was analyzed using a 4×6 repeated measures ANOVA with time (six 5-min blocks) as the repeating measure. Another ANOVA was conducted that included all three Drug conditions (MG, NTX, and MG+NTX).
as §2

cFos [12] = conditions: 2 mg/kg, i.p.; cited from earlier work
[13] = tested on: female Sprague Dawley rats; conditions: 10 mg/kg (highest dose), progressive ratio schedule; cited from earlier work

T1 sequence (P41143 whole entry): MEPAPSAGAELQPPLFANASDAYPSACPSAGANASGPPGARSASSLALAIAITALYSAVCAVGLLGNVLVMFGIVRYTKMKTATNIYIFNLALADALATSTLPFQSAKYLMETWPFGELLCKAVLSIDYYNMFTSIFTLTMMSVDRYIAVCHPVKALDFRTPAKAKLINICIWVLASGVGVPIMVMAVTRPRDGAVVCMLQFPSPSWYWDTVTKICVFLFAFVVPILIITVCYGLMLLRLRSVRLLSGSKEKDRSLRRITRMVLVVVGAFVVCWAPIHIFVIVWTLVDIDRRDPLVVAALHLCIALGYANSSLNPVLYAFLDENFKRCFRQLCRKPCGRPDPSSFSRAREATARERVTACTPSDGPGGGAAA
T2 sequence (P32300 whole entry): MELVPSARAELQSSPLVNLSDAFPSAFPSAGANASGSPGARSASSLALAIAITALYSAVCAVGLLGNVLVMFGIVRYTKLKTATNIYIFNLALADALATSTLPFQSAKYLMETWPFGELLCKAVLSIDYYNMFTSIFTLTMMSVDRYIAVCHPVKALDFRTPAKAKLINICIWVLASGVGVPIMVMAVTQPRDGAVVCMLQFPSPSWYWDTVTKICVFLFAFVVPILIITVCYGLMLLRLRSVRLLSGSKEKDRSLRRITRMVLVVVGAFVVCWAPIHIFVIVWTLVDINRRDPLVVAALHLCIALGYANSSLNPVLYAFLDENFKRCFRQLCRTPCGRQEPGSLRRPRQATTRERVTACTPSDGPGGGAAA

## CC[C@@H]1CN2CC[C@@]3(O)C(=Nc4cccc(OC)c43)[C@@H]2C[C@@H]1/C(=C\OC)C(=O)OC [7-HMG, 7-hydroxymitragynine, reference compound]
Male or female rats; rat, in vivo
  Abuse liability in ICSS: abuse liability was not shown in ICSS
Mice of both sexes; dose not given
  Alcohol consumption: significantly reduced alcohol consumption as did 7-HMG
Rats [1]
  Self-administration by rats: readily self-administered by rats

## CC[C@@H]1CN2CCc3c([nH]c4cccc(OC)c34)[C@@H]2C[C@@H]1/C(=C\OC)C(=O)OC [MG, mitragynine]
Delta opioid receptors [2]
  Activity at receptor: has activity at delta opioid receptors
Male or female rats; 3.2-56 mg/kg
  Rewarding effect in ICSS: did not find evidence that MG (3.2-56 mg/kg) was rewarding
[3]
  Active lever presses, post-hoc comparison with vehicle: significant differences in active lever presses between vehicle and 1.0 (P<0.01) and 3.0 mg/kg (P<0.0001)
  Estimated total alcohol intake, post-hoc comparison with vehicle: significant differences between vehicle and 1.0 (P<0.01) and 3.0 mg/kg (P<0.001)
  Number of head entries, comparison with vehicle: significant differences between vehicle and 1.0 (P<0.01) and 3.0 mg/kg (P<0.01)
  Number of reinforcers earned, post-hoc comparison with vehicle: significant differences between vehicle compared to 1.0 (P<0.05) and 3.0 mg/kg (P<0.0001)
[3]; 0.3-3.0 mg/kg IP
  All alcohol self-administration measures (lever presses, head entries, reinforcers, alcohol consumed): All measures were significantly decreased
[3]; 0.3-3.0 mg/kg IP, combination vs single drugs
  Alcohol self-administration overall, relative efficacy of drug conditions: more significant effects on all four measures of alcohol self-administration than NTX
[3]; MG vs NTX vs MG+NTX at equal doses, 3x4 ANOVA, post-hoc
  Active lever presses, direct comparison between drug conditions: trend for a greater effect of MG on active lever presses at the 3 mg/kg dose
Mice of both sexes; 30 and 100 mg/kg, i.p.
  Alcohol consumption: significantly reduced alcohol consumption
[4]
  Substitution for morphine in drug discrimination tests: partially substitute for morphine
Delta opioid receptors [5]
  Inhibition of forskolin-stimulated cAMP: inhibits forskolin-stimulated CAMP in a concentration manner
Delta opioid receptors [6]
  Binding: very low binding to delta opioid receptors
[7]
  Decrease of schedule-controlled responding by MG in presence of NTX: did not block MG's ability to decrease schedule-controlled responding
[8]
  Place conditioning: induce place conditioning
cFos [9]
  Number of cFos positive neurons in dorsal striatum: did not differ from the control group
Rats [10]; broad range of doses, rats trained to self-administer (i.v.) morphine
  Self-administration when substituted for morphine: did not support self-administration
Rats [10]; prior exposure
  i.v. morphine self-administration after prior exposure: decreases i.v. morphine self-administration
mice; 5-30 mg/kg
  Spontaneous locomotor activity: no effect on spontaneous locomotor activity
mice; male mice, 5, 10, 15 mg/kg
  Activity: significant decrease in activity
Male Sprague Dawley rats; 3.0 mg/kg
  Heroin self-administration: decreased heroin self-administration
Male Sprague Dawley rats; 0.03-3.0 mg/kg
  Responding when substituted for heroin: did not maintain responding above saline levels
Male rats
  Locomotor activity: higher doses (10-30 mg/kg, ip) of MG but not lower doses (1, 5, 10 mg/kg, i.p.) increase locomotor activity
[11]
  Distance traveled over 5-min time blocks: tend to increase locomotor activity
  Total distance traveled over entire 30-min session: did not differ between groups

## O=C1CC[C@@]2(O)[C@H]3Cc4ccc(O)c5c4[C@@]2(CCN3CC2CC2)[C@H]1O5 [NTX, naltrexone, reference compound]
[3]
  Active lever presses, post-hoc comparison with vehicle: significant differences in active lever presses between vehicle and 1.0 (P<0.05) and 3.0 mg/kg (P<0.05)
  Estimated total alcohol intake, post-hoc comparison with vehicle: significant differences between vehicle and 1.0 (P<0.05) and 3.0 mg/kg (P<0.05)
  Number of head entries, comparison with vehicle: trend towards a main effect for Dose
  Number of reinforcers earned, post-hoc comparison with vehicle: significant differences between vehicle compared to 1.0 (P<0.05) and 3.0 mg/kg (P<0.05)
[3]; 0.3-3.0 mg/kg IP
  All alcohol self-administration measures (lever presses, head entries, reinforcers, alcohol consumed): All measures were significantly decreased by naltrexone except for head entries that showed a trend towards significance
cFos [12]
  cFos expression: increases cFos expression in several brain areas including the NAC
[13]
  Active lever presses, reinforcers earned, head entries: decreased active lever presses, reinforcers earned but not head entries
cFos [9]
  Number of cFos positive neurons in dorsal striatum: did not differ from the control group
  Number of cFos positive neurons in nucleus accumbens (NAC): significant difference between control and NTX (P=0.002); also recorded: increased cFos levels to a similar degree to that of MG and NTX combined
[11]
  Distance traveled over 5-min time blocks: tend to increase locomotor activity
  Total distance traveled over entire 30-min session: did not differ between groups
